Source: the supplement of paper PMC13380429

Legend:
[1] = test system: A549-ACE2 infected with SARS-CoV-2; test: morphology score (similarity to uninfected cells); higher = more like uninfected cells; details: 24 h
[2] = test system: U2OS; test: drug sensitivity score (DSS) for viability; higher = more toxic; extreme values may be limits of the assay; details: 72 h
[3] = test system: Calu-3; test: as above; details: 72 h
[4] = test system: HepG2; test: as above; details: 72 h
[5] = test system: Vero E6; test: as above; details: 72 h
[6] = test system: Caco-2; test: as above; details: 72 h
[7] = test system: A549-ACE2 infected with SARS-CoV-2; test: SARS-CoV-2 infection rate relative to DMSO; higher = more infection; details: 24 h
[8] = test system: A549-ACE2; test: drug-induced phospholipidosis relative to tamoxifen; higher = more phospholipidosis
[9] = test system: A549-ACE2; test: phospholipidosis EC50; higher = less potent phospholipidosis inducer
[10] = test system: U2OS; test: relative viability EC50 (midpoint between 100% and the lowest measured viability); higher = less toxic; details: 72 h
[11] = test system: Calu-3; test: as above; details: 72 h
[12] = test system: Vero E6; test: as above; details: 72 h
[13] = test system: U2OS; test: cell viability relative to DMSO; higher = less toxic; details: 72 h
[14] = test system: Calu-3; test: as above; details: 72 h
[15] = test system: HepG2; test: as above; details: 72 h
[16] = test system: Vero E6; test: as above; details: 72 h
[17] = test system: Caco-2; test: as above; details: 72 h
[18] = test system: A549-ACE2 infected with SARS-CoV-2; test: cell count relative to DMSO; higher = less toxic; details: 24 h
[19] = test system: HepG2; test: relative viability EC50 (midpoint between 100% and the lowest measured viability); higher = less toxic; details: 72 h
[20] = test system: Caco-2; test: as above; details: 72 h

C[C@@H](O[C@H]1OCCN(Cc2nn[nH]c2CN(C)C)[C@H]1c1ccc(F)cc1)c1cc(C(F)(F)F)cc(C(F)(F)F)c1
Details	SARS-CoV-2 infection rate [%]	cell count [%]	cell viability [%]	morphology score	phospholipidosis EC50 [µM]
[1], 0.3 µM	–	–	–	0.33	–
[1], 3 µM	–	–	–	0.54	–
[1], 10 µM	–	–	–	0.79	–
[1], 30 µM	–	–	–	0.29	–
[7], 0.3 µM	94	–	–	–	–
[7], 3 µM	67	–	–	–	–
[7], 10 µM	21	–	–	–	–
[7], 30 µM	29	–	–	–	–
[9], 24 h	–	–	–	–	3.41
[9], 48 h	–	–	–	–	3.74
[9], 72 h	–	–	–	–	4.73
[13], 1 nM	–	–	98.8	–	–
[13], 10 nM	–	–	96.9	–	–
[13], 100 nM	–	–	105	–	–
[13], 1000 nM	–	–	98.6	–	–
[13], 10000 nM	–	–	75.9	–	–
[14], 1 nM	–	–	93.6	–	–
[14], 10 nM	–	–	93.9	–	–
[14], 100 nM	–	–	91.8	–	–
[14], 1000 nM	–	–	97.5	–	–
[14], 10000 nM	–	–	75.1	–	–
[15], 1 nM	–	–	90.8	–	–
[15], 10 nM	–	–	91.5	–	–
[15], 100 nM	–	–	87.5	–	–
[15], 1000 nM	–	–	110	–	–
[15], 10000 nM	–	–	69.1	–	–
[16], 1 nM	–	–	91	–	–
[16], 10 nM	–	–	102	–	–
[16], 100 nM	–	–	95	–	–
[16], 1000 nM	–	–	96.9	–	–
[16], 10000 nM	–	–	82.8	–	–
[17], 1 nM	–	–	97	–	–
[17], 10 nM	–	–	94.6	–	–
[17], 100 nM	–	–	99.9	–	–
[17], 1000 nM	–	–	103	–	–
[17], 10000 nM	–	–	70.7	–	–
[18], 0.3 µM	–	104	–	–	–
[18], 3 µM	–	107	–	–	–
[18], 10 µM	–	114	–	–	–
[18], 30 µM	–	96	–	–	–

Details	drug sensitivity score	relative viability EC50 [µM]
[2]	1.1	–
[3]	1.3	–
[4]	0.9	–
[5]	0.7	–
[6]	1.1	–
[10]	–	> 10
[11]	–	> 10
[12]	–	> 10

drug-induced phospholipidosis [%], [8]
Details	0.3 µM	0.833333 µM	3.33333 µM	6.66667 µM	10 µM
24 h	0.77	3.06	53.9	92.5	102
48 h	1.56	0.335	38.1	83.7	91.7
72 h	2.71	0.0731	32.7	80.6	99.1

CCN(CC)CCOc1ccc(C(O)(Cc2ccc(Cl)cc2)c2ccc(C)cc2)cc1 (stereo not given) [Triparanol]
Details	morphology score, 0.1 µM	morphology score, 0.3 µM	morphology score, 1 µM	morphology score, 3 µM	phospholipidosis EC50, 24 h [µM]	phospholipidosis EC50, 48 h [µM]	phospholipidosis EC50, 72 h [µM]
[1]	0.02	-0.17	0.22	0.85	–	–	–
[9]	–	–	–	–	2.19	2.74	3.71

Details	drug sensitivity score
[2]	1.3
[3]	5.5
[4]	6.4
[5]	0.7

C/C(=N\NC(=S)N1CCC1)c1ccccn1
Details	SARS-CoV-2 infection rate, [7] [%]	cell count, [18] [%]	cell viability, [13] [%]	cell viability, [14] [%]	cell viability, [15] [%]	cell viability, [16] [%]	cell viability, [17] [%]	morphology score, [1]
1 nM	–	–	101	97.3	104	102	91.8	–
10 nM	–	–	101	102	74.3	96.6	14.9	–
0.1 µM	104	96	–	–	–	–	–	-0.24
100 nM	–	–	59	56.8	5.6	70.5	17.9	–
0.3 µM	104	95	–	–	–	–	–	-0.09
1 µM	104	89	–	–	–	–	–	-0.19
1000 nM	–	–	28.1	38.4	11.4	31.3	39.6	–
3 µM	68	88	–	–	–	–	–	0.17
10000 nM	–	–	15.4	25.4	21	14.5	34	–

Details	drug sensitivity score	relative viability EC50 [µM]
[2]	18.8	–
[3]	18	–
[4]	32.8	–
[5]	16.4	–
[6]	38.4	–
[10]	–	0.122
[11]	–	0.0907
[12]	–	0.206
[19]	–	0.0148
[20]	–	0.0024

drug-induced phospholipidosis [%], [8]
Details	0.3 µM	0.833333 µM	3.33333 µM	6.66667 µM	10 µM	30 µM
24 h	11.7	5.99	0.42	-4.61	-12.7	-11.9
48 h	–	–	–	–	-6.55	–

CCC[C@@H]1CC2=CC(=O)CC[C@]2(C)[C@H]2CC[C@@]3(C)[C@@H](CC[C@@]3(O)CCC(=O)O)[C@H]12
Details	SARS-CoV-2 infection rate, [7] [%]	cell count, [18] [%]	cell viability, [13] [%]	cell viability, [14] [%]	cell viability, [15] [%]	cell viability, [16] [%]	cell viability, [17] [%]	morphology score, [1]
1 nM	–	–	98.9	101	87.5	94.6	87.4	–
10 nM	–	–	98.3	92.5	105	91	98.4	–
100 nM	–	–	97.2	100	93.3	97.6	95.7	–
0.3 µM	98	95	–	–	–	–	–	0.12
1000 nM	–	–	100	98.5	92	89.1	94.9	–
3 µM	105	103	–	–	–	–	–	-0.07
10 µM	97	100	–	–	–	–	–	0.07
10000 nM	–	–	93.8	102	101	95.4	89.8	–
30 µM	96	99	–	–	–	–	–	0.1

Details	drug sensitivity score	relative viability EC50 [µM]
[2]	0	–
[3]	0	–
[4]	0	–
[5]	0	–
[6]	0	–
[10]	–	> 10
[11]	–	> 10
[12]	–	> 10
[19]	–	> 10
[20]	–	> 10

drug-induced phospholipidosis [%], [8]
Details	0.3 µM	0.833333 µM	3.33333 µM	6.66667 µM	10 µM	30 µM
24 h	2.3	-0.41	-0.2	0.45	2.66	5.67
48 h	3.88	0.27	-1.07	1.45	3.16	6.48
72 h	3.28	-0.65	-0.652	0.565	3.59	9.53

CCN1CCN(c2ccc(C(C)(C)NC(=O)c3cc4[nH]c5ccccc5c(=O)c4cc3F)cn2)CC1
Details	SARS-CoV-2 infection rate [%]	cell count [%]	cell viability [%]	morphology score	phospholipidosis EC50 [µM]
[1], 0.3 µM	–	–	–	0.33	–
[1], 3 µM	–	–	–	0.74	–
[1], 10 µM	–	–	–	0.74	–
[1], 30 µM	–	–	–	0.53	–
[7], 0.3 µM	92	–	–	–	–
[7], 3 µM	34	–	–	–	–
[7], 10 µM	11	–	–	–	–
[7], 30 µM	25	–	–	–	–
[9], 24 h	–	–	–	–	11.6
[13], 1 nM	–	–	99.3	–	–
[13], 10 nM	–	–	96.5	–	–
[13], 100 nM	–	–	94.2	–	–
[13], 1000 nM	–	–	105	–	–
[13], 10000 nM	–	–	25.5	–	–
[14], 1 nM	–	–	96.4	–	–
[14], 10 nM	–	–	87.8	–	–
[14], 100 nM	–	–	92.7	–	–
[14], 1000 nM	–	–	76.7	–	–
[14], 10000 nM	–	–	43.3	–	–
[15], 1 nM	–	–	95.7	–	–
[15], 10 nM	–	–	104	–	–
[15], 100 nM	–	–	103	–	–
[15], 1000 nM	–	–	77	–	–
[15], 10000 nM	–	–	52.9	–	–
[16], 1 nM	–	–	109	–	–
[16], 10 nM	–	–	102	–	–
[16], 100 nM	–	–	102	–	–
[16], 1000 nM	–	–	97.2	–	–
[16], 10000 nM	–	–	92	–	–
[17], 1 nM	–	–	102	–	–
[17], 10 nM	–	–	105	–	–
[17], 100 nM	–	–	107	–	–
[17], 1000 nM	–	–	116	–	–
[17], 10000 nM	–	–	86.5	–	–
[18], 0.3 µM	–	102	–	–	–
[18], 3 µM	–	93	–	–	–
[18], 10 µM	–	97	–	–	–
[18], 30 µM	–	72	–	–	–

Details	drug sensitivity score	relative viability EC50 [µM]
[2]	3.7	–
[3]	5.6	–
[4]	5.4	–
[5]	0	–
[6]	0	–
[10]	–	3.53
[11]	–	1.18
[12]	–	> 10
[20]	–	> 10

drug-induced phospholipidosis [%], [8]
Details	0.3 µM	0.833333 µM	3.33333 µM	6.66667 µM	10 µM	30 µM
24 h	6.26	-2.09	-3.71	11.8	31.3	80.5
48 h	4.42	0.5	–	–	–	67.5
72 h	12.4	4.2	–	–	–	–

Nc1nc(NC[C@H]2CC[C@H](CNS(=O)(=O)c3cccc4ccccc34)CC2)nc2ccccc12
Details	SARS-CoV-2 infection rate [%]	cell count [%]	cell viability [%]	morphology score	phospholipidosis EC50 [µM]
[1], 0.1 µM	–	–	–	0.06	–
[1], 0.3 µM	–	–	–	-0.01	–
[1], 1 µM	–	–	–	0.19	–
[1], 3 µM	–	–	–	0.63	–
[7], 0.1 µM	101	–	–	–	–
[7], 0.3 µM	95	–	–	–	–
[7], 1 µM	90	–	–	–	–
[7], 3 µM	12	–	–	–	–
[9], 24 h	–	–	–	–	1.03
[9], 48 h	–	–	–	–	3.12
[9], 72 h	–	–	–	–	6.11
[13], 1 nM	–	–	101	–	–
[13], 10 nM	–	–	101	–	–
[13], 100 nM	–	–	98.5	–	–
[13], 1000 nM	–	–	96.8	–	–
[13], 10000 nM	–	–	3.6	–	–
[14], 1 nM	–	–	89.3	–	–
[14], 10 nM	–	–	95.8	–	–
[14], 100 nM	–	–	98.8	–	–
[14], 1000 nM	–	–	98.1	–	–
[14], 10000 nM	–	–	0.9	–	–
[15], 1 nM	–	–	98.2	–	–
[15], 10 nM	–	–	99.6	–	–
[15], 100 nM	–	–	101	–	–
[15], 1000 nM	–	–	86.3	–	–
[15], 10000 nM	–	–	0.8	–	–
[16], 1 nM	–	–	97	–	–
[16], 10 nM	–	–	95.8	–	–
[16], 100 nM	–	–	99.9	–	–
[16], 1000 nM	–	–	91.6	–	–
[16], 10000 nM	–	–	4	–	–
[17], 1 nM	–	–	102	–	–
[17], 10 nM	–	–	97.4	–	–
[17], 100 nM	–	–	93.8	–	–
[17], 1000 nM	–	–	95	–	–
[17], 10000 nM	–	–	12.7	–	–
[18], 0.1 µM	–	105	–	–	–
[18], 0.3 µM	–	101	–	–	–
[18], 1 µM	–	101	–	–	–
[18], 3 µM	–	123	–	–	–

Details	drug sensitivity score	relative viability EC50 [µM]
[2]	5.8	–
[3]	5.8	–
[4]	7.8	–
[5]	6.7	–
[6]	5.6	–
[10]	–	2.92
[11]	–	3.03
[12]	–	2.44
[19]	–	2.06
[20]	–	2.71

drug-induced phospholipidosis [%], [8]
Details	0.3 µM	0.833333 µM	3.33333 µM	6.66667 µM	10 µM	30 µM
24 h	4.45	16.1	78.1	111	51.3	58.3
48 h	5.61	11.2	82	124	–	–
72 h	6.01	9.91	62.8	129	–	–
